Experiments:
[1] = system: MEFs expressing a dox-inducible polycistronic transgene construct encoding the four reprogramming factors; assay: Doxycycline-inducible iPSC generation from secondary MEFs; type: cell-based, mouse; conditions: Dox-treated MEFs
Experimental: To further test the hypothesis that TLR3 activation was required for efficient reprogramming, we isolated MEFs from murine embryos expressing a doxycycline (Dox)-inducible polycistronic transgene construct encoding the four reprogramming factors. To generate iPSCs, 10^5 MEFs/per well in 6-well plates were treated with Dox. In some wells, poly I:C was also added for the initial 6 days of the reprogramming process. In other wells, cells were infected with pMX-GFP on the first day of Dox treatment. Poly I:C or pMX-GFP each accelerated the expression of Oct4 and Sox2 (FIG. 6A). […] Similarly, infection with pMX-GFP seemed to accelerate colony formation, as a number of small colonies were observed by day 7 in the viral particle infected group (FIG. 16). By day 14, typical mES-like colonies appeared, many of which had activated SSEA-1. At this time point, the number of typical SSEA-1^+ colonies were increased by 7-8 fold in wells exposed to viral particles or poly I:C (FIG. 6B). Colony number increased further by day 21-28 (FIGS. 6B and 6C). […]
Doxycycline-induced iPSCs: As previously described (Wernig et al., 2008), MEFs from chimeric embryos at E13.5 were isolated. […] The generation of iPSC colonies was monitored daily and scored at days 14 and 21. […]

[2] = system: Oct4 and Sox2 promoters; assay: ChIP of histone H3 trimethylation at Oct4 and Sox2 promoters; type: cell-based, human
Experimental: We hypothesized that TLR3 activation might enhance early transcriptional activation by inducing an open chromatin state, permitting the reprogramming factors to induce an ESC-specific gene expression pattern. Accordingly, we performed ChIP assays to detect trimethylation of histone H3 at lysine 4 (H3K4me3). This epigenetic modification marks transcriptionally active genes. Human fibroblasts were treated with pMXSox2, or with CPPSox2 in the presence of poly I:C or pMXGFP. […] In a similar fashion, we assessed histone H3 at lysine 9 (H3K9me3) in the Oct4 and Sox2 promoters. This epigenetic modification marks transcriptionally silenced genes. […] These studies provided an epigenetic mechanism to explain the effect of TLR3 activation to enhance nuclear reprogramming.
Chromatin Immunoprecipitation and ChIP-qPCR qChIP was performed as previously described (Lim et al., 2009; Peng et al., 2009). For qChIP and qRT-PCR, error estimates are standard deviations. Recovery of genomic DNA as the percentage input was calculated as the ratio of copy numbers in the immunoprecipitate to the input control. Primers of Oct4 and Sox2 promoters were purchased from Cell Signaling.

[3] = system: heterochromatin protein 1 (HP1); assay: HP1 distribution (confocal microscopy) and expression (Western); type: cell-based, human
Experimental: In addition, the changes in methylation status of the Oct4 and Sox2 promoters that were accelerated by TLR3 activation were also associated with an accelerated redistribution of heterochromatin protein 1 (HP1; FIGS. 19A and 19B). HP1 that is bound to methylated H3K9 recruits the methylase Suv39h, leading to further methylation of H3K9, so as to consolidate a repressed state. The redistribution of HP1 induced by poly I:C is consistent with genome-wide epigenetic alterations induced by TLR3 activation. Histone acetylation favors an open chromatin state, maintained by proteins containing histone acetyltransferase (HAT) domains, such as p300 and CBP. NF-κB is a transcriptional effector of TLR3 activation, and interacts with CBP/p300 to positively regulate gene expression. […] This effect was mediated by TLR3, as shRNA knockdown of TLR3 or its adaptor protein TRIF1 reduced the effect of poly I:C on NF-κB activation (FIG. 20).
Heterochromatin protein-1 (HP1) is associated with the closed conformation of chromatin. […] The fact that the current work implicated TRIF signaling likely aligns with the fact that the retrovirus RNA provides adequate TLR3 signaling to trigger NF-κB, IRF3 and IFN. While TLR3 mimicked signaling from the retrovirus vector, other TLR agonists as well as agonists for NOD-like receptors, RIG-1-like receptors, cytosolic DNA sensors and C-type lectin receptors, drive a similar inflammatory response converging on NF-κB, IRF-3 and IFNβ.
Western Blotting Proteins were extracted from BJ fibroblasts by solubilizing the cells in RIPA buffer containing 1× protease inhibitor cocktail. 25 μg of total protein was loaded and resolved on SDSpolyacrylamide gels, transferred to PVDF membranes and probed with the following primary antibodies: anti-HP1α and anti-HDAC (Cell Signaling), and β-actin (Sigma, A5441). Immunoblots were developed with enhanced chemiluminescence reagents (Amersham).

[4] = in combination with CPPSox2, day 2

Polyinosinicpolycytidylic acid [Poly I:C]
changes in the morphology of the MEFs ([1]; 3 days): accelerated changes in the morphology
expression of Oct4 and Sox2 ([1]; poly I:C initial 6 days or pMX-GFP on first day): accelerated
H3K4 trimethylation at the Sox2 promoter ([2]; CPP-treated fibroblasts): accelerated H3K4 trimethylation
H3K9 trimethylation at the Sox2 promoter ([2]; CPP-treated fibroblasts): accelerated the loss of H3K9 trimethylation
H3K4 trimethylation at the Oct4 promoter ([2]; agent alone, day 2 (time course day 2-6)): had no effect
H3K4 trimethylation at the Oct4 promoter [2, 4]: induced changes in H3K4 trimethylation
H3K9 trimethylation at the Oct4 promoter [2, 4]: enhanced the H3K9 trimethylation
distribution of HP1 ([3]; co-administered with CPP-SOX2): marked changes in its distribution
expression of HP-1α (immunoblot) ([3]; day 2 to day 6): unaffected
distribution of HP1 ([3]; in the absence of the CPP): no observable redistribution
